This note sets out measurements from patent US5932417A, “Method of screening compounds for controlling capacitative calcium ion entry into mammalian cells” (priority 1996, dated 1999).

“Also recorded” adds a separate entry of the source.

Assay [1] has as its target T1, Htrp3 (Homo sapiens, UniProt Q13507).
T1 sequence (Q13507 1-848 isoform Q13507-3): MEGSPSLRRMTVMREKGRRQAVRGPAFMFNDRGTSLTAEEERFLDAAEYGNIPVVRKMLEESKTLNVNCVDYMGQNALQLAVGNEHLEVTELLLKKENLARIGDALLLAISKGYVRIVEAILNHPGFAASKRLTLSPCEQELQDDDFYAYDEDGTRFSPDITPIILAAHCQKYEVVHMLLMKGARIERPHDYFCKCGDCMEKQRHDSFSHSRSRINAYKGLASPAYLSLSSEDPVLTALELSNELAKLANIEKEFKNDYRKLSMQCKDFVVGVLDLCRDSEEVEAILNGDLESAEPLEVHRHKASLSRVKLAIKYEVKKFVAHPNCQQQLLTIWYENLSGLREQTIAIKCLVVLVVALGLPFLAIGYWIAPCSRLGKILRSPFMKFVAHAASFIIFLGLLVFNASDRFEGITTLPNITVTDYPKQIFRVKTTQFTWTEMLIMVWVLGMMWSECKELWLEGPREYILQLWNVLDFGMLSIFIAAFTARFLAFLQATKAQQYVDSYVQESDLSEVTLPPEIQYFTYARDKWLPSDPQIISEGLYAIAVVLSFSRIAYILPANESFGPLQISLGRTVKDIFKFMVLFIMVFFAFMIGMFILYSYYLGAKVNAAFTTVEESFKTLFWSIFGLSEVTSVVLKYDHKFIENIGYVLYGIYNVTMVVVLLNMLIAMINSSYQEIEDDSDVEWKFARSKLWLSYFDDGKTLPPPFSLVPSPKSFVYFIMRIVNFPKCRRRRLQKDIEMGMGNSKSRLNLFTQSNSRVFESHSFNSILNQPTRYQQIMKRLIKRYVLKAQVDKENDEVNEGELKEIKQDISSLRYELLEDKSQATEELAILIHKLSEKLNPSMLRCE
Put plainly: Maitotoxin-stimulated Ca2+ influx into HEK 293 cells expressing Htrp3 versus control cells. It counts as cell-based. More on the design: expressed in transfected cells. As to conditions: HEK 293 cells (FIG. 3). The text has this:
(§1) Trp proteins can be expressed in cells by standard recombinant means such as described in Innamoratti et al. (57), Gudermann et al. (58), Zhu et al. (59) and Ca^2+ influx monitored in single cells as described in Zhu et al. (30) or in a population of cells as described in Liao et al. (32). By doing this in the absence and presence of test compounds of which the effect on trp-mediated CCE can then be determined. An example is shown below (FIGS. 1 and 2) where human embryonic kidney cells (HEK-293 cells) expressing Htrp3 in stable form (HEKt3-9) are stimulated with carbachol and CCE is measured upon readdition of Ca^2+ to the extracellular medium. […] Not only agents that block calcium entry due to trp expression but also agents that stimulate calcium entry due to trp can be monitored in this way.
(§2) In the above examples, cell were suspended in extracellular solution at a concentration of 20×10^6 cells/ml, loaded with Fura2AM (5 μM, 30 min), washed with solution nominally free of calcium, twice, and suspended at 2×10^6 cells/ml. Intracellular Ca^2+ concentrations were then monitored as described in Liao et al (32). Times and concentrations of additions are depicted by the bars in the Figures. Control cells were HEK 293 cells expressing an unrelated protein. For further details see references 32 and 30. […]

In assay [2] the test system is CCE endogenous to the HEK 293 cell. The assay is described as follows: Carbachol-stimulated endogenous CCE in control HEK 293 cells. It counts as cell-based, human. As to conditions: 25 μM SKF 96365.
Excerpt: as §1, §2

Assay [3] has as its target T1, Htrp3. The assay is described as follows: Carbachol-stimulated CCE upon Ca2+ readdition in HEK-293 cells stably expressing Htrp3 (HEKt3-9). It counts as cell-based. Details: expressed in transfected cells. Conditions: 25 μM SKF 96365, HEKt3-9 cells, Ca2+ readdition (FIG. 2).
Excerpt: as §1, §2

The subject of assay [4] is CCE endogenous to COS cells. The assay is classed as cell-based.
Experimental: Intracellular Ca^2+ transients were measured in individual cells by fluorescence videomicroscopy using the Attofluor Digital Imaging and Photometry attachment of a Carl Zeiss Axiovert inverted microscope. Cells (COS-M6 or L) were grown on circular coverslips, rinsed and incubated with 5 μM Fura2/AM (Molecular Probes) in Hepes buffered saline (HPSS: 120 mM NaCl, 5.3 mM KCl, 0.8 mM MgSO4, 1.8 mM CaCl2, 11.1 mM glucose, 20 mM Hepes-Na, pH 7.4) at 37° C. for 30 min and then washed with HPSS twice at room temperature. The coverslips with the cells were then clamped into a circular open-bottom chamber and mounted onto the stage of the microscope. [Ca^2+ ]i in individual cells was monitored at room temperature exciting Fura2 alternatingly at 334 and 380 nm and recording emitted fluorescence at 520 nm. […] Data from 15 to 30 individual cells were thus collected per experiment and experiments were repeated until data from sufficient cells were collected to generate an ensemble average that was calculated after transfer into Microsoft Excel 5.0. […]
For assessment of the rate at which [Ca^2+ ]i falls after an initial stimulation with agonist, t=0 is the time of agonist addition; for assessment of rate of influx of Ca^2+ into cells in which Ca^2+ stores had been depleted by agonist, t=0 is the time of Ca^2+ readdition. t1/2 /values were obtained by fitting the function A=A°exp(-t·ln2/t1/2)+B to the data points shown. […]
For assay [5], the target named is T1, Htrp3. The assay is classed as cell-based. Details: The full length cDNAs encoding the M5 muscarinic receptor (32), Htrp1 (29), Htrp3 and murine luteinizing hormone receptor; expressed in transfected cells; host or cells: COS-M6.
Experimental: Intracellular Ca^2+ transients were measured in individual cells by fluorescence videomicroscopy using the Attofluor Digital Imaging and Photometry attachment of a Carl Zeiss Axiovert inverted microscope. Cells (COS-M6 or L) were grown on circular coverslips, rinsed and incubated with 5 μM Fura2/AM (Molecular Probes) in Hepes buffered saline (HPSS: 120 mM NaCl, 5.3 mM KCl, 0.8 mM MgSO4, 1.8 mM CaCl2, 11.1 mM glucose, 20 mM Hepes-Na, pH 7.4) at 37° C. for 30 min and then washed with HPSS twice at room temperature. The coverslips with the cells were then clamped into a circular open-bottom chamber and mounted onto the stage of the microscope. [Ca^2+ ]i in individual cells was monitored at room temperature exciting Fura2 alternatingly at 334 and 380 nm and recording emitted fluorescence at 520 nm. All reagents were diluted to their final concentrations in HPSS and applied to the cells by surface perfusion. […] The system allows data acquisition from up to 99 user-defined variably-sized regions of interest per field of view. Data from 15 to 30 individual cells were thus collected per experiment and experiments were repeated until data from sufficient cells were collected to generate an ensemble average that was calculated after transfer into Microsoft Excel 5.0. […]
For assessment of the rate at which [Ca^2+ ]i falls after an initial stimulation with agonist, t=0 is the time of agonist addition; for assessment of rate of influx of Ca^2+ into cells in which Ca^2+ stores had been depleted by agonist, t=0 is the time of Ca^2+ readdition. t1/2 /values were obtained by fitting the function A=A°exp(-t·ln2/t1/2)+B to the data points shown.
Cells that had been transfected with expression vectors carrying the M5 receptor and, as appropriate, either the newly cloned Htrp3 cDNA or the previously cloned Htrp1 cDNA (29), were grown on coverslips, loaded with the florescent Ca^2+ indicator dye Fura2 and tested for a response to CCh 40-48 hours after transfection. […] Changes in [Ca^2+ ]i as a function of time were recorded from individual cells, averaged and fitted by a first order decay function plus an offset.
Assay [6] addresses T1, Htrp3. The assay is described as follows: Thapsigargin (store depletion)-stimulated Ca2+ entry in Htrp3-transfected COS cells. As to conditions: 250 μM La3+; 500 nM TG, 1.8 mM Ca2+ added. It counts as cell-based. Details: The full length cDNAs encoding the M5 muscarinic receptor (32), Htrp1 (29), Htrp3 and murine luteinizing hormone receptor; expressed in transfected cells; host or cells: COS-M6. The protocol: (§3) Intracellular Ca^2+ transients were measured in individual cells by fluorescence videomicroscopy using the Attofluor Digital Imaging and Photometry attachment of a Carl Zeiss Axiovert inverted microscope. Cells (COS-M6 or L) were grown on circular coverslips, rinsed and incubated with 5 μM Fura2/AM (Molecular Probes) in Hepes buffered saline (HPSS: 120 mM NaCl, 5.3 mM KCl, 0.8 mM MgSO4, 1.8 mM CaCl2, 11.1 mM glucose, 20 mM Hepes-Na, pH 7.4) at 37° C. for 30 min and then washed with HPSS twice at room temperature. The coverslips with the cells were then clamped into a circular open-bottom chamber and mounted onto the stage of the microscope. [Ca^2+ ]i in individual cells was monitored at room temperature exciting Fura2 alternatingly at 334 and 380 nm and recording emitted fluorescence at 520 nm. All reagents were diluted to their final concentrations in HPSS and applied to the cells by surface perfusion. The duration of exposure to each reagent mixture is indicated by the horizontal lines above the graphs depicting the changes in [Ca^2+ ]i as a function of time. […] Data from 15 to 30 individual cells were thus collected per experiment and experiments were repeated until data from sufficient cells were collected to generate an ensemble average that was calculated after transfer into Microsoft Excel 5.0. […]

For assay [7], the system named is endogenous TG-stimulated Ca2+ entry of COS cells. The assay is described as follows: Thapsigargin (store depletion)-stimulated Ca2+ entry in control COS cells. It counts as cell-based. As to conditions: 250 μM La3+, 500 nM TG, 1.8 mM Ca2+ added. How it is done:
as §3

Assay [8] deals with M5 muscarinic receptor. Put plainly: Carbachol-induced capacitative Ca2+ influx in Ltk- cell lines expressing the M5 receptor (Fura2). It counts as cell-based. As to conditions: control Ltk- cell lines with M5 receptor only; average±SD, 20 cells each of 5 clones. The protocol: Mouse fibroblast Ltk^- cells (3×10^6 cells/100 mm dish) were transfected by the calcium phosphate/glycerol shock method with 5 μg each of the plasmids with the antisense cDNAs and 0.5 μg of the pcDNA3 carrying the M5 receptor. The control cells received only the M5 muscarinic receptor cDNA in pcDNA3. One day after transfection, the cells were trypsinized and diluted with Minimum Essential Medium--α medium containing 10% heat-inactivated fetal bovine serum, 50 units/ml penicillin, 50 μg/ml streptomycin, and 400 μg/ml G418 (GIBCO). Serial 1:4 dilutions of the cells were transferred into 96-well plates and G418 resistant clones were allowed to develop for two weeks in the G41 8-containing medium. Single colonies were then expanded and the cells used for Fura2 fluorescence measurement of muscarinic receptor induced [Ca^2+ ]i transients. […]
Intracellular Ca^2+ transients were measured in individual cells by fluorescence videomicroscopy using the Attofluor Digital Imaging and Photometry attachment of a Carl Zeiss Axiovert inverted microscope. […] [Ca^2+ ]i in individual cells was monitored at room temperature exciting Fura2 alternatingly at 334 and 380 nm and recording emitted fluorescence at 520 nm. […]

Assay [9] has as its system M5 muscarinic receptor. The assay is described as follows: Carbachol-induced [Ca2+]i plateau in COS-M6 cells transfected with M5 receptor. The assay is classed as cell-based. As to conditions: extracellular Ca2+ present. How it is done:
COS-M6 cells were transfected by the DEAE-dextran/chloroquine shock method (14) as described (30) with changes. Sixteen hours prior to transfection, COS-M6 cells that had been kept subconfluent were plated at a density of 2×10^5 cells/well onto 25 mm glass coverslips placed at the bottom of the wells of 6-well plates. Cells in the individual wells were then transfected with 160 μl of transfection mixture (30) containing 0.1 μg pcDNA3 with the M5 receptor cDNA, a three fold molar excess of pcDNA3 vector carrying either the Htrp3, Htrp1 or mLHR cDNA to bring the final concentration of DNA to 4 μg/ml. Cell were used 40 to 48 hours after transfection.
Intracellular Ca^2+ transients were measured in individual cells by fluorescence videomicroscopy using the Attofluor Digital Imaging and Photometry attachment of a Carl Zeiss Axiovert inverted microscope. […] [Ca^2+ ]i in individual cells was monitored at room temperature exciting Fura2 alternatingly at 334 and 380 nm and recording emitted fluorescence at 520 nm. […] Data from 15 to 30 individual cells were thus collected per experiment and experiments were repeated until data from sufficient cells were collected to generate an ensemble average that was calculated after transfer into Microsoft Excel 5.0. […]

Take maitotoxin: at Htrp3 [1], the “Maitotoxin-stimulated Ca2+ influx, Htrp3-expressing cells versus control cells” value is given as “several fold larger”.

Consider `COc1ccc(CCCOC(Cn2ccnc2)c2ccc(OC)cc2)cc1` (centres unmarked) [SKF 96365], for which the “Sensitivity of CCE endogenous to the HEK 293 cell (control)” value in assay [2] is “much less sensitive”. In addition, on Htrp3 [3], the “Block of CCE due to Htrp3 (extra-CCE)” value was “blocks selectively; also recorded: blocked”.

Turning to `[Ni+2]` [Ni^2+, nickel], in [4] (2 mM Ni2+, COS cells), the “Block of endogenous CCh-stimulated CCE” value is listed as over 90%. The “Inhibition of CCh-stimulated influx due to Htrp3” value on Htrp3 [5] (2 mM Ni2+, Htrp3-transfected COS cells) came out at 20%. The “Block of Ca2+ influx in Htrp3 cells” value on Htrp3 [5] (10 mM Ni2+, Htrp3-transfected COS cells) was found to be 85%.

`[La+3]` [La^3+, lanthanum]: the “Effect on TG-stimulated Ca2+ entry into Htrp3 transfected cells” value at Htrp3 [6] is “significant residual”. For the same molecule, the “Block of endogenous Ca2+ influx” value in assay [4] (250 μM La3+, COS cells, agonist-stimulated) is reported as 80-90%. Also, the “Inhibition of CCE endogenous to COS cells” value in assay [4] (1 mM La3+, CCh-stimulated, Ca2+ readdition) is reported as “fully inhibited”. Also, the “Block of TG-stimulated Ca2+ entry” value in assay [7] was over 80%. Moreover, at Htrp3 [5] (250 μM La3+, Htrp3-transfected COS cells), the “Block of the difference due to Htrp3 influx” value is on record as 30-40%. Moreover, the “Inhibition of Htrp3-stimulated Ca2+ influx” value at Htrp3 [5] (1 mM La3+, COS-M6 cells, CCh-stimulated, Ca2+ readdition) is recorded as “fully inhibited”.

Regarding `C[N+](C)(C)CCOC(N)=O` [CCh, carbachol], in the assay with M5 muscarinic receptor [8], the “Increase of [Ca2+]i through the capacitative influx path (at Ca2+ addition vs 30 sec later)” value was 96 ± 5 nM.

With `CN1[C@@H]2CC[C@H]1C[C@@H](OC(=O)C(CO)c1ccccc1)C2` (some centres unmarked) [atropine], the “Effect on carbachol-maintained [Ca2+]i plateau” value with M5 muscarinic receptor [9] was “blocked”.
